Measurements from patent US20220226293A1, “TREATMENTS OF ANGIOEDEMA” (KALVISTA PHARMACEUTICALS LIMITED, priority 2019, published 2022).

How the values were obtained:
[1] = background, literature and labels; cited from earlier work
[2] = system: HK cleavage in undiluted plasma; assay: DXS-activated cleavage of HK in undiluted plasma (immunoblot); format: biochemical, human; conditions: 300 nM PKa inhibitor, 20 min incubation with DXS
Method: DXS-activated cleavage of HK in undiluted plasma was performed in the absence or presence of 300 nM PKa inhibitor and quantified by SDS-PAGE gel electrophoresis, using 7.5% Criterion TGX Precast gels (Biorad). Transfer was made onto Immunobilon-FL PVDF membrane. Image analysis was done using the LICOR imaging system. Mouse monoclonal anti-HK antibody (MAB15692, R&D systems) was used for traditional immunoblotting. Data presented as % of HK remaining after 20 min incubation with DXS compared to HK levels in unactivated plasma (Table 1).

[3] = system: HK cleavage in undiluted citrated human plasma; assay: Protection of HK from PKa-mediated cleavage in DXS-stimulated HAE and control plasma (WES immunoassay); format: biochemical; conditions: HAE and healthy control plasma stimulated with dextran sulfate
Method: High molecular weight kininogen (HK) cleavage in undiluted citrated human plasma was induced by contact system activation with dextran sulfate (DXS, Sigma #31395-10G; 6.25 μg/ml) on wet ice. […] HAE plasma was obtained from HAE subjects (n=6) and C1-inhibitor deficiency was confirmed by western blotting. Protection of HK from PKa mediated cleavage in DXS-stimulated whole undiluted plasma was then determined by two methods; traditional western blotting and a semi-automated capillary-based immunoassay.
Capillary-based immunoassay on the WES System (ProteinSimple):
Preparation of samples: Combine one part 5× fluorescent master mix with four parts of the 1:200 plasma sample. Vortex to mix. Heat the samples+fluorescent master mix and the biotinylated ladder at 95° C. for 5 minutes, vortex, and load onto the WES plate. Monoclonal anti-human HK antibody was used for this chemiluminescence-based detection method using the Wes System (ProteinSimple).
Analysis: Collect the peak area measurement obtained in the Compass software (cbz file) for the full-length HK molecular weight of the respective time-point sample with DXS-induced activation. The peak area is defined as the area calculated for the spectral peak profile for HK. To measure the plasma kallikrein inhibition by the compound, the percent full-length HK detected was calculated.

HK cleavage = assay: Phase 1 SAD: ex vivo DXS-stimulated cleavage of HK, Wes capillary immunoassay; parameters: species or system human; conditions: 600 mg orally in capsules, up to 12 hrs post-dose
Method: DXS-stimulated cleavage of HK, in undiluted plasma was quantified by capillary-based immunoassay on the Wes System (ProteinSimple) using monoclonal anti-HK antibody and chemiluminescence-based detection. Plasma kallikrein mediated HK cleavage in undiluted citrated human plasma was induced by contact system activation with DXS (6.25 μg/ml) at 4° C. in selected samples from the SAD phase.

Factor XII (FXII) = assay: Phase 1 SAD: ex vivo DXS-stimulated cleavage of Factor XII / generation of FXIIa, Wes immunoassay; parameters: species or system human; conditions: 600 mg orally in capsules, up to 12 hrs post-dose
Text: (§1) DXS-stimulated cleavage of plasma prekallikrein and Factor XII (FXII) were quantified by capillary-based immunoassay on the Wes System (ProteinSimple) analogously.

[4] = Phase 1 multiple dose study: safety, tolerability, ECG; format: in vivo, human; conditions: healthy adults
Method: This is a phase 1, double-blind, placebo-controlled, multiple-dose, multiple-cohort study to evaluate safety and tolerability of the compound as well as of the ECG effects of the compound formulated as 100 mg Film Coated Tablets in healthy adult male and female subjects.
During the study, oral doses of 600 mg of the compound as Film Coated Tablets (six 100 mg tablets) or 6 matching placebo tablets will be administered once every 8 hours (Cohort 1) every 4 hours (Cohort 2), or every 2 hours (Cohort 3 and 4) to healthy adult male and female subjects up to a total dose of 1800 mg. In Cohorts 1, 2 and 3, 6 subjects will receive the compound as 100 mg Film Coated Tablets and 2 subjects will receive the placebo for a total of 8 subjects per cohort. In Cohort 4, 12 subjects will receive the compound as 100 mg Film Coated Tablets and 6 subjects will receive the placebo for a total of 18 subjects.
A Holter monitor will be attached to each subject in order to continuously record ECGs. The monitor will be attached 1 hour before the first dose and will remain attached until after the final blood sample collection. The electrodes for the Holter monitor will be checked by a member of the clinic staff at appropriate intervals to ensure they are attached.

[5] = target: T1, plasma kallikrein catalytic activity (Homo sapiens, UniProt P03952); assay: Phase 1 SAD / food effect: ex vivo PKa catalytic activity in DXS-stimulated undiluted plasma
T1 construct: from tissue; host or cells: undiluted plasma of healthy male study participants after oral dosing, stimulated ex vivo with dextran sulfate
Method: (§2) This study was a randomized, double-blind, placebo-controlled single ascending dose (SAD) and crossover studies for food effect and capsule/tablet formulations.
PD measurements were determined in dextran sulfate (DXS) stimulated undiluted plasma using a fluorogenic enzyme assay and capillary based HK cleavage immunoassay.
The time until appearance of detectable amidolytic enzyme activity in DXS-stimulated plasma (lag time) was calculated from the catalytic activity assay. The detection sensitivity of the rate of catalytic activity in plasma based on using a Spark (Tecan) fluorimeter is a fluorescence increase to reach 1ΔF unit/sec.

plasma prekallikrein = assay: Phase 1 SAD: ex vivo DXS-stimulated cleavage of plasma prekallikrein, Wes immunoassay; parameters: species or system human; conditions: 600 mg orally in capsules, up to 12 hrs post-dose
Text: as §1

[6] = Phase 1 SAD: plasma pharmacokinetics (LC MS/MS); format: in vivo, human
Method: Samples for pharmacokinetic (PK) and PD assessment were taken at repeated intervals over 48 hours.
Plasma samples used for PK assessment were analysed using a validated liquid chromatography tandem mass spectrometry (LC MS/MS) method.

[7] = Phase 1 SAD and food effect study: safety and tolerability; format: in vivo, human; conditions: phase I trial, healthy males
Text: as §2

Human plasma kallikrein = target: T2, Human plasma kallikrein (Homo sapiens, UniProt P03952); assay: Plasma kallikrein inhibitory activity in vitro, purified enzyme, fluorogenic substrate; format: biochemical; conditions: 25° C., substrate H-DPro-Phe-Arg-AFC
T2 construct: purchased Protogen
Method: Human plasma kallikrein (Protogen) was incubated at 25° C. with the fluorogenic substrate H-DPro-Phe-Arg-AFC and various concentrations of the test compound. Residual enzyme activity (initial rate of reaction) was determined by measuring the change in […] at 410 nm and the IC50 value for the test compound was determined.

purified PKa = purified PKa (Homo sapiens, UniProt P03952); assay: Rate of formation of the enzyme-inhibitor complex (Kon); format: biochemical
Method: The rate of formation of the enzyme-inhibitor complex (Kon) was determined using purified PKa rapidly mixed with a solution containing fluorogenic substrate and a concentration range of inhibitor. The time-dependent establishment of inhibition was then used to calculate the rate of formation of the enzyme-inhibitor complex for each concentration of inhibitor. The Kon was calculated by plotting the rate of inhibition versus the inhibitor concentration. Data in Table 1 are presented in μM^−1 sec^−1.

[8] = target: PKa in DXS-activated plasma (Homo sapiens, UniProt P03952); assay: Catalytic activity of PKa in dextran sulfate-activated plasma; format: biochemical; conditions: read-out: IC50 plasma enzyme
Method: Catalytic activity of PKa in dextran sulfate-activated (DXS, Sigma; 10 μg/ml) plasma (1:4 diluted or undiluted, VisuCon-F control plasma, Affinity Biologicals Inc) was determined by the time-dependent hydrolysis of fluorogenic substrate.

[9] = target: T3, plasma kallikrein-kinin pathway enzyme activity in pre-activated plasma (Homo sapiens, UniProt P03952); assay: Inhibition of enzyme activity of pre-activated undiluted plasma (compound added after DXS); format: biochemical; conditions: added 3.5 minutes post DXS; compound 300, 1000, 3000 nM; C1-INH 3000 nM
T3 construct: from tissue
Method: The ability of the compound to inhibit the enzyme activity of pre-activated plasma was assessed by addition of the compound after DXS stimulation. Aliquots of plasma (20 μL) were mixed with a 2.5 μL solution containing […] fluorogenic substrate (H-DPro-Phe-Arg-AFC) and a 2.5 μL solution of dextran sulphate (DXS; 100 μg/mL) which acted as an activator of the plasma kallikrein-kinin pathway. Enzyme activity was immediately measured by monitoring the accumulation of fluorescence liberated from the substrate by substrate cleavage over 16 minutes. At 3.5 minutes post DXS addition 5 μl of inhibitors or water control are were added into each well. The compound was tested at concentrations of 300, 1000 and 3000 nM. C1-INH at a concentration of 3000 nM and vehicle controls were also included.

[10] = 3 x 600 mg every 8, 4 or 2 hours

T1 sequence (P03952 391-638 limits assumed): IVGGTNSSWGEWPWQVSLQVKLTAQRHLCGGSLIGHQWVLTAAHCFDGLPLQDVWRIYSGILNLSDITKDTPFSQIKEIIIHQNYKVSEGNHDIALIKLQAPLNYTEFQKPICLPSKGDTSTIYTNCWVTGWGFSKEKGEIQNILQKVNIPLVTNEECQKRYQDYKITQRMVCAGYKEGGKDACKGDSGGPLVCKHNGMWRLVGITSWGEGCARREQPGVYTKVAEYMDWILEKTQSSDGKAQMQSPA
T1 sequence (P03952 20-390 partner limits assumed): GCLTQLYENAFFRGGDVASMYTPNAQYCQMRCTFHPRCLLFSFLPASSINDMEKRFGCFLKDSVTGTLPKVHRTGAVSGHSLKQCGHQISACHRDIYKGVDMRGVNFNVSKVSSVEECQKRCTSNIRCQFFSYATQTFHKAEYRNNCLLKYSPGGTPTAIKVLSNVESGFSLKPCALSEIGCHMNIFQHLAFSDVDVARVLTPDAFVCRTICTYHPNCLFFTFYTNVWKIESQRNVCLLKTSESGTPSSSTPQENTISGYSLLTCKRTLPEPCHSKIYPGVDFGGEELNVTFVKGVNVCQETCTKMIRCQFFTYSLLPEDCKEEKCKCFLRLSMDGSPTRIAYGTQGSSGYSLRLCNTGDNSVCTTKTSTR
T3 sequence (P03952 391-638 limits assumed): as the sequence (P03952 391-638 limits assumed) above
T3 sequence (P03952 20-390 partner limits assumed): as the sequence (P03952 20-390 partner limits assumed) above
T2 sequence (P03952 391-638 limits assumed): as the sequence (P03952 391-638 limits assumed) above
T2 sequence (P03952 20-390 partner limits assumed): as the sequence (P03952 20-390 partner limits assumed) above
Sequence of PKa in DXS-activated plasma (P03952 391-638 limits assumed): as the sequence (P03952 391-638 limits assumed) above
Sequence of PKa in DXS-activated plasma (P03952 20-390 partner limits assumed): as the sequence (P03952 20-390 partner limits assumed) above
Sequence of purified PKa (P03952 391-638 limits assumed): as the sequence (P03952 391-638 limits assumed) above
Sequence of purified PKa (P03952 20-390 partner limits assumed): as the sequence (P03952 20-390 partner limits assumed) above

## N#Cc1cccc([C@@H](NCC2CC2)c2ccc(F)c(NC(=O)c3cc(C(F)(F)F)nn3-c3cccc(CN)c3)c2)c1 [Berotralstat]
[1]
  reported adverse reactions / risks: higher doses were associated with more gastrointestinal adverse effects

## COCc1nn(Cc2ccc(Cn3ccccc3=O)cc2)cc1C(=O)NCc1nccc(OC)c1F [Compound of Formula A, N-[(3-fluoro-4-methoxypyridin-2-yl)methyl]-3-(methoxymethyl)-1-({4-[(2-oxopyridin-1-yl)methyl]phenyl}methyl)pyrazole-4-carboxamide]
[2]
  HK protection (% of HK remaining vs unactivated plasma): 85%
[3]
  protection against HK cleavage: dose dependent protection against HK cleavage
HK cleavage
  effect on HK cleavage: reduces HK cleavage
Factor XII (FXII)
  effect on generation of FXIIa: reduces the generation of FXIIa
[4]; [10]
  serious adverse events: No serious adverse events were reported
  severity of reported adverse events: mild
[4]; 3 x 600 mg
  effects on the studied ECG parameters: No clinically relevant effects
[5]; 600 mg dose, tablet formulation
  lag time (time until appearance of catalytic activity during contact system activation): increases the time until appearance of catalytic activity
[5]; 600 mg tablet, by 30 minutes, fed and fasted state
  inhibition at 600 mg: > 90%
[5]; 600 mg tablet, early time points post-dose
  detectable catalytic activity after prolonged DXS activation: did not display detectable catalytic activity
[5]; 600 mg tablet, fed and fasted state
  food effect on pharmacodynamic (PD) profile: no significant food-effect
[5]; po, cohort 6 (160 mg oral), between 45 min and 2 hr post-dose
  inhibition at 160 mg: > 90%
[5]; po, cohort 7 (300 mg oral), between 20 min and 4 hr post-dose
  inhibition at 300 mg: > 90%
Plasma prekallikrein
  effect on PPK cleavage: reduces PPK cleavage
[6]; following a dosage amount of at least about 60 mg
  plasma concentration: at least 500 ng/mL
[6]; oral capsule, fasted, 5 mg to 600 mg
  plasma exposure: rapid and dose-dependent plasma exposure
[7]
  serious adverse events: No serious adverse events were reported
  tolerability signals: no tolerability signals

## C1-INH: C1 inhibitor (C1-INH, Sigma Cat #E0518), comparator [Compound C1-INH]
Human plasma kallikrein
  IC50: 50 nM
Purified PKa
  Kon: 40000 M⁻¹ s⁻¹
[8]
  IC50: 1700 nM
[9]
  inhibition of enzyme activity after activation of plasma: slower action

## Ecallantide
[1]
  reported adverse reactions / risks: risk of anaphylactic reactions

B1: lanadelumab: recombinant fully human IgG1 kappa light chain monoclonal antibody, active substance of Takhzyro® (antibody, chains of the INN, looked up, V domains shown)
VH: EVQLLESGGGLVQPGGSLRLSCAASGFTFSHYIMMWVRQAPGKGLEWVSGIYSSGGITVYADSVKGRFTISRDNSKNTLYLQMNSLRAEDTAVYYCAYRRIGVPRRDEFDIWGQGTMVTVSS
VL: DIQMTQSPSTLSASVGDRVTITCRASQSISSWLAWYQQKPGKAPKLLIYKASTLESGVPSRFSGSGSGTEFTLTISSLQPDDFATYYCQQYNTYWTFGQGTKVEIK
[1]
  reported adverse reactions / risks: hypersensitivity, injection site pain, injection site erythema, and injection site bruising
